Test results as given in US4727080A, “1-substituted derivatives of 6-fluoro-7-(pyrrol-1-yl)-1,4-dihydro-4-oxoquinoline-3-carboxylic acid, their preparation and their application as drugs” (Provesan S.A., priority 1984, dated 1988).
Converted amounts (≈) assume the structure as drawn.

Tests used:
[1] = tested on: Escherichia coli R-1513; assay: "In vitro" MIC, Escherichia coli R-1513; format: cell-based; conditions: R1513; Escherichia coli R-1513; dextrose agar, 37° C., 20 hours; read-out: "In vitro" MIC
Procedure: (§1) Antimicrobial pharmacological activity (G. L. Daquet and Y. A. Chabbect, Techniques en bacteriologie (Techniques in bacteriology), vol. 3, Flammarion Medecine-Sciences, Paris, 1972, and W. B. Hugo and A. D. Rusell, Pharmaceutical Microbiology, Blackwell Scientific Publications, London (1977).
(§2) A streak culture of each of the microorganisms is formed in tubes of antibiotics agar no. 1 and incubated for 20 hours at 37° C. A culture loop is then taken and a culture is formed in a tryptone-soya broth and incubated for 20 hours at 37° C. The resulting culture is diluted to 1/4 with Ringer's physiological solution to give a standardized suspension of 10^5 ufc/ml for each organism.
(§3) Starting from a solution of 1000 μg/ml in 0.1N NaOH, each product is diluted successively in dextrose agar (melted beforehand and kept at 50° C.) to give the following concentrations: 64-32-16-8-4-2-1-0.5-0.25-0.125 μg of derivative/ml of medium.
(§4) After this, each concentration of each product is divided up into Petri dishes of 10 cm diameter at a rate of 10 ml of medium per dish and using as many dishes as there are microorganisms to be tested.
(§5) Once the medium has cooled, the dishes are treated with the inoculations at a rate of 0.4 ml of inoculation per dish. They are spread out with a Drigalski loop and the supernatant is collected. The inoculated dishes are incubated at 37° C. for 20 hours.

[2] = tested on: Serratia marcescens ATTC 13880; assay: "In vitro" MIC, Serratia marcescens; format: cell-based; conditions: ATTC13880; Serratia marcescens ATTC 13880; dextrose agar, 37° C., 20 hours; read-out: "In vitro" MIC
Procedure: as §1
Serratia marcescens ATTC 13880
as §2, §3, §4, §5

[3] = tested on: Salmonella typhimurium AMES 98; assay: "In vitro" MIC, Salmonella typhimurium AMES 98; format: cell-based; conditions: Salmonella enterica; Salmonella typhimurium AMES 98; dextrose agar, 37° C., 20 hours; read-out: "In vitro" MIC
Procedure: as §1
Salmonella typhimurium AMES 98
as §2, §3, §4, §5

[4] = tested on: Enterobacter aerogenes ATCC 15038; assay: "In vitro" MIC, Enterobacter aerogenes; format: cell-based; conditions: Klebsiella aerogenes, ATCC15038; Enterobacter aerogenes ATCC 15038; dextrose agar, 37° C., 20 hours; read-out: "In vitro" MIC
Procedure: as §1
Enterobacter aerogenes ATCC 15038
as §2, §3, §4, §5

[5] = tested on: Shigella flexnerii; assay: "In vitro" MIC, Shigella flexnerii; format: cell-based; conditions: 20 h, read-out: "In vitro" MIC
Procedure: as §1, §2, §3, §4, §5

[6] = tested on: Klebsiella pneumoniae ATCC 10031; assay: "In vitro" MIC, Klebsiella pneumoniae; format: cell-based; conditions: ATCC10031; Klebsiella pneumoniae ATCC 10031; dextrose agar, 37° C., 20 hours; read-out: "In vitro" MIC
Procedure: as §1
Klebsiella pneumoniae ATCC 10031
as §2, §3, §4, §5

[7] = tested on: Staphylococcus aureus ATCC 5488/23; assay: "In vitro" MIC, Staphylococcus aureus ATCC 5488/23; format: cell-based; conditions: ATCC5488; Staphylococcus aureus ATCC 5488/23; dextrose agar, 37° C., 20 hours; read-out: "In vitro" MIC
Procedure: as §1
Staphylococcus aureus ATCC 5488/23
as §2, §3, §4, §5

[8] = tested on: Gram-positive cocci; assay: "In vitro" antimicrobial activity compared with nalidixic acid, Gram-positive cocci; format: cell-based
Procedure: as §1, §2, §3, §4, §5

[9] = tested on: Sarcina lutea ATCC 9341; assay: "In vitro" MIC, Sarcina lutea; format: cell-based; conditions: Micrococcus luteus, ATCC9341; Sarcina lutea ATCC 9341; dextrose agar, 37° C., 20 hours; read-out: "In vitro" MIC
Procedure: as §1, §2, §3, §4, §5

[10] = tested on: Staphylococcus aureus ATCC 25178; assay: "In vitro" MIC, Staphylococcus aureus ATCC 25178; format: cell-based; conditions: ATCC25178; Staphylococcus aureus ATCC 25178; dextrose agar, 37° C., 20 hours; read-out: "In vitro" MIC
Procedure: as §1
Staphylococcus aureus ATCC 25178
as §2, §3, §4, §5

[11] = tested on: Streptococcus faecalis ATCC 10541; assay: "In vitro" MIC, Streptococcus faecalis; format: cell-based; conditions: Enterococcus faecalis, ATCC10541; Streptococcus faecalis ATCC 10541; dextrose agar, 37° C., 20 hours; read-out: "In vitro" MIC
Procedure: as §1
Streptococcus faecalis ATCC 10541
as §2, §3, §4, §5

[12] = tested on: Pseudomonas aeruginosa 25115; assay: "In vitro" MIC, Pseudomonas aeruginosa 25115; format: cell-based; conditions: Pseudomonas aeruginosa 25115; dextrose agar, 37° C., 20 hours; read-out: "In vitro" MIC
Procedure: as §1
Pseudomonas aeruginosa 25115
as §2, §3, §4, §5

[13] = tested on: Pseudomonas aeruginosa ADSA 47; assay: "In vitro" MIC, Pseudomonas aeruginosa ADSA 47; format: cell-based; conditions: ADSA47; Pseudomonas aeruginosa ADSA 47; dextrose agar, 37° C., 20 hours; read-out: "In vitro" MIC
Procedure: as §1
Pseudomonas aeruginosa ADSA 47
as §2, §3, §4, §5

[14] = tested on: Escherichia coli ATCC 10536; assay: "In vitro" MIC, Escherichia coli ATCC 10536; format: cell-based; conditions: ATCC10536; Escherichia coli ATCC 10536; dextrose agar, 37° C., 20 hours; read-out: "In vitro" MIC
Procedure: as §1
Escherichia coli ATCC 10536
as §2, §3, §4, §5

[15] = Acute toxicity to mice; conditions: mouse, in vivo, ip, suspension in 5% gum arabic, mortality over 7 days
Procedure: The experimental animals used to determine this toxicity were albino mice of the C.F.L.P. strain and of both sexes, weighing between 19 and 25 grams. After an 18-hour fasting period with water "ad libitum", the derivatives forming the subject of the present invention are administered intraperitoneally as a suspension in 5% gum arabic. The volume of suspension administered was 0.4 ml/20 grams (20 ml/kg) in all cases, the concentration of the suspension being changed according to the dose administered.
One hour after administration of the derivatives, the animals are given a standard Panlab rat-mouse food. The mortality was observed over a period of 7 days. Differences in mortality between the sexes were not observed with any of the products.

[16] = tested on: Bacillus subtilis ATCC 6633; assay: "In vitro" MIC, Bacillus subtilis; format: cell-based; conditions: ATCC6633; Bacillus subtilis ATCC 6633; dextrose agar, 37° C., 20 hours; read-out: "In vitro" MIC
Procedure: as §1
Bacillus subtilis ATCC 6633
as §2, §3, §4, §5

[17] = tested on: Proteus morganii CHSP-16; assay: "In vitro" MIC, Proteus morganii; format: cell-based; conditions: Morganella morganii, CHSP16; Proteus morganii CHSP-16; dextrose agar, 37° C., 20 hours; read-out: "In vitro" MIC
Procedure: as §1, §2, §3, §4, §5

[18] = tested on: Enterobacter cloacae CHSP-20; assay: "In vitro" MIC, Enterobacter cloacae; format: cell-based; conditions: CHSP20; Enterobacter cloacae CHSP-20; dextrose agar, 37° C., 20 hours; read-out: "In vitro" MIC
Procedure: as §1
Enterobacter cloacae CHSP-20
as §2, §3, §4, §5

[19] = tested on: Citrobacter freundii ATCC 11606; assay: "In vitro" MIC, Citrobacter freundii; format: cell-based; conditions: ATCC11606; Citrobacter freundii ATCC 11606; dextrose agar, 37° C., 20 hours; read-out: "In vitro" MIC
Procedure: as §1
Citrobacter freundii ATCC 11606
as §2, §3, §4, §5

[20] = tested on: Proteus mirabilis ATCC 4675; assay: "In vitro" MIC, Proteus mirabilis; format: cell-based; conditions: ATCC4675; Proteus mirabilis ATCC 4675; dextrose agar, 37° C., 20 hours; read-out: "In vitro" MIC
Procedure: as §1
Proteus mirabilis ATCC 4675
as §2, §3, §4, §5

[21] = tested on: Salmonella typhimurium AMES 100; assay: "In vitro" MIC, Salmonella typhimurium AMES 100; format: cell-based; conditions: Salmonella enterica; Salmonella typhimurium AMES 100; dextrose agar, 37° C., 20 hours; read-out: "In vitro" MIC
Procedure: as §1
Salmonella typhimurium AMES 100
as §2, §3, §4, §5

[22] = tested on: Enterobacteriaceae (Pseudomonas aeruginosa); assay: "In vitro" antimicrobial activity compared with nalidixic acid, Enterobacteriaceae (Pseudomonas aeruginosa); format: cell-based
Procedure: as §1, §2, §3, §4, §5

[23] = tested on: Micrococcus flavus ATCC 10240; assay: "In vitro" MIC, Micrococcus flavus; format: cell-based; conditions: ATCC10240; Micrococcus flavus ATCC 10240; dextrose agar, 37° C., 20 hours; read-out: "In vitro" MIC
Procedure: as §1
Micrococcus flavus ATTC 10240
as §2, §3, §4, §5

| Compound | MIC [1] | MIC [2] | MIC [3] | MIC [4] | MIC [5] | MIC [6] | MIC [7] | "in vitro" activity compared with nalidixic acid [8] | MIC [9] | MIC [10] | MIC [11] | MIC [12] | MIC [13] | MIC [14] | LD50 at 168 h [15] | MIC [16] | MIC [17] | MIC [18] | MIC [19] | MIC [20] | also measured |
| --- | --- | --- | --- | --- | --- | --- | --- | --- | --- | --- | --- | --- | --- | --- | --- | --- | --- | --- | --- | --- | --- |
| C=Cn1cc(C(=O)O)c(=O)c2cc(F)c(-n3cccc3)cc21 [Example 3, 6-fluoro-7-(pyrrol-1-yl)-1-vinyl-4-oxo-1,4-dihydroquinoline-3-carboxylic acid] | 1 µg/mL (≈ 3.35 µM) | 1 µg/mL (≈ 3.35 µM) | ≤ 0.062 µg/mL | 1 µg/mL (≈ 3.35 µM) | 1 µg/mL (≈ 3.35 µM) | 0.5 µg/mL (≈ 1.68 µM) | 0.5 µg/mL (≈ 1.68 µM) | greater "in vitro" activity than nalidixic acid | 8 µg/mL (≈ 26.8 µM) | 0.5 µg/mL (≈ 1.68 µM) | 16 µg/mL (≈ 53.6 µM) | 4 µg/mL (≈ 13.4 µM) | 8 µg/mL (≈ 26.8 µM) | 0.125 µg/mL (≈ 0.419 µM) | > 1600 mg/kg | ≤ 0.062 µg/mL | 2 µg/mL (≈ 6.71 µM) | 1 µg/mL (≈ 3.35 µM) | 1 µg/mL (≈ 3.35 µM) | 2 µg/mL (≈ 6.71 µM) | MIC [21]: 0.5 µg/mL (≈ 1.68 µM); "in vitro" activity compared with nalidixic acid [22]: greater "in vitro" activity than nalidixic acid; MIC [23]: 4 µg/mL (≈ 13.4 µM) |
| O=C(O)c1cn(CCO)c2cc(-n3cccc3)c(F)cc2c1=O [Example 2, 6-fluoro-7-(pyrrol-1-yl)-1-(2-hydroxyethyl)-4-oxo-1,4-dihydroquinoline-3-carboxylic acid] | 1 µg/mL (≈ 3.16 µM) | 1 µg/mL (≈ 3.16 µM) | 0.25 µg/mL (≈ 0.79 µM) | 2 µg/mL (≈ 6.32 µM) | 1 µg/mL (≈ 3.16 µM) | 0.062 µg/mL (≈ 0.196 µM) | 0.5 µg/mL (≈ 1.58 µM) | greater "in vitro" activity than nalidixic acid | 16 µg/mL (≈ 50.6 µM) | 0.5 µg/mL (≈ 1.58 µM) | 1 µg/mL (≈ 3.16 µM) | 16 µg/mL (≈ 50.6 µM) | ≥ 32 µg/mL | 0.125 µg/mL (≈ 0.395 µM) | > 1600 mg/kg | ≤ 0.062 µg/mL | 1 µg/mL (≈ 3.16 µM) | 1 µg/mL (≈ 3.16 µM) | 1 µg/mL (≈ 3.16 µM) | 1 µg/mL (≈ 3.16 µM) | MIC [21]: 0.25 µg/mL (≈ 0.79 µM); "in vitro" activity compared with nalidixic acid [22]: greater "in vitro" activity than nalidixic acid; MIC [23]: 16 µg/mL (≈ 50.6 µM) |
